Measured values published in US9090633B2, “Substituted 4-(arylamino) selenophenopyrimidine compounds and methods of use thereof” (KASINA LAILA INNOVA PHARMACEUTICALS PRIVATE LIMITED, priority 2010, dated 2013).

Tests used:
[1] = test system: human prostate DU145 cells; assay: MTT based cell proliferation assay, DU145; settings: for IC50: DU-145, 72 h, read-out: Cell proliferation inhibition in DU145 (Prostate carcinoma), IC50
Procedure: (§1) MTT [3-(4,5-dimethylthiazol-2-yl)-2,5-diphenyltetrazolium bromide incorporation based cell proliferation assay was performed using standard procedure. […] The assay was carried out according to the instructions provided by the vendor. […] Vehicle control culture wells received only a maximum of 0.5% DMSO. Thereafter, 0.5 mg/ml of MTT reagent was added to each well and the microplate was incubated further for 4 h at 37° C. in presence of 5% CO2. Finally, the cells were solubilized by adding solubilizing solution and allowed to incubate at 37° C. overnight. After complete solubilization of the formazan crystals the absorbance was read at 540 nm in a microplate reader (BioRad, USA).
(§2) The evaluation of cell proliferation inhibitory activities of the compounds was done in two phases—(1) Screening, and (2) half-maximal inhibitory concentration (IC50) determination. In the screening phase, the cells were treated with different concentrations.

[2] = test system: human lung carcinoma A549 cells; assay: MTT based cell proliferation assay, A549; settings: for IC50: A549, 72 h, read-out: Cell proliferation inhibition in A549 (Lung carcinoma), IC50
Procedure: as §1, §2

[3] = test system: human colorectal carcinoma HT29 cells; assay: MTT based cell proliferation assay, HT29; settings: for IC50: HT-29, 72 h, read-out: Cell proliferation inhibition in HT29 (Colon carcinoma), IC50
Procedure: as §1, §2

[4] = test system: human breast carcinoma (estrogen receptor negative) MDA-MB-231 cells; assay: MTT based cell proliferation assay, MDA-MB-231
Procedure: as §1, §2

[5] = test system: human Hepatocellular carcinoma HepG2 cells; assay: MTT based cell proliferation assay, HepG2
Procedure: as §1, §2

[6] = test system: human cervical carcinoma HeLa cells; assay: MTT based cell proliferation assay, HeLa
Procedure: as §1, §2

[7] = Homo sapiens, A549, read-out: Cell proliferation inhibition in A549 (Lung carcinoma)
[8] = Homo sapiens, DU-145, read-out: Cell proliferation inhibition in DU145 (Prostate carcinoma)
[9] = Homo sapiens, HT-29, read-out: Cell proliferation inhibition in HT29 (Colon carcinoma)

Fc1ccc(Nc2ncnc3[se]c4c(c23)CCCC4)cc1Cl [Compound 1, (3-chloro-4-fluorophenyl)-5,6,7,8-tetrahydrobenzo[1,2-b]pyrimidino[5,6-d]selenophen-4-ylamine]
IC50 ([1]; Homo sapiens): 8.37 µM

Brc1cncc(Nc2ncnc3[se]c4c(c23)CCCC4)c1 [Compound 2, (5-bromo(3-pyridyl))-5,6,7,8-tetrahydrobenzo[1,2-b]pyrimidino[5,6-d]selenophen-4-ylamine]
inhibition at 22.421 µM [2, 7]: 20.7%
inhibition at 22.421 µM [1, 8]: 13.1%
inhibition at 22.421 µM [3, 9]: 11.1%

Clc1cc(Nc2ncnc3[se]c4c(c23)CCCC4)cc(Cl)n1 [Compound 3, (2,6-dichloropyridin-4-yl)-5,6,7,8-tetrahydrobenzo[1,2-b]pyrimidino[5,6-d]selenophen-4-ylamine]
inhibition at 22.935 µM [2, 7]: 15.6%
inhibition at 22.935 µM [1, 8]: 18.3%
inhibition at 22.935 µM [3, 9]: 13.8%

Clc1cc(Nc2ncnc3[se]c4c(c23)CCCC4)nc(Cl)n1 [Compound 4, (2,6-dichloropyrimidin-4-yl)-5,6,7,8-tetrahydrobenzo[1,2-b]pyrimidino[5,6-d]selenophen-4-ylamine]
IC50 ([2]; Homo sapiens): 42.3 µM
IC50 ([1]; Homo sapiens): 37.1 µM
IC50 ([3]; Homo sapiens): 162 µM

c1cnc(Nc2ncnc3[se]c4c(c23)CCCC4)cn1 [Compound 5, pyrazin-2-yl-5,6,7,8-tetrahydrobenzo[1,2-b]pyrimidino[5,6-d]selenophen-4-ylamine]
IC50 ([1]; Homo sapiens): 16.4 µM

Brc1cc(Nc2ncnc3[se]c4c(c23)CCCC4)c(Br)s1 [Compound 6]
IC50 ([2]; Homo sapiens): 49 µM
IC50 ([1]; Homo sapiens): 42.4 µM
inhibition at 18.868 µM [3, 9]: 15.5%

CC(C)(C)c1cc(Nc2ncnc3[se]c4c(c23)CCCC4)c(C(N)=O)s1 [Compound 7, (5-tert-butyl)-3-(5,6,7,8-tetrahydrobenzo[1,2-b]pyrimidino[5,6-d]selenophen-4-ylamino)thiophene-2-carboxamide]
IC50 ([3]; Homo sapiens): 9.3 µM

NS(=O)(=O)c1ccc(Nc2ncnc3[se]c4c(c23)CCCC4)cc1 [Compound 12, 4-(5,6,7,8-tetrahydrobenzo[1,2-b]pyrimidino[5,6-d]selenophen-4-ylamino)benzenesulfonamide]
inhibition at 24.449 µM [3, 9]: 15.6%

CC(C)(C)c1c[se]c2ncnc(Nc3ccc(F)c(Cl)c3)c12 [Compound 13, [5-(tert-butyl)selenopheno[3,2-e]pyrimidin-4-yl](3-chloro-4-fluorophenyl)amine]
IC50 ([2]; Homo sapiens): 15 µM
IC50 ([1]; Homo sapiens): 41.6 µM
IC50 ([3]; Homo sapiens): 37.9 µM

Fc1ccc(Nc2ncnc3[se]cc(-c4ccccc4)c23)cc1Cl [Compound 14, (3-chloro-4-fluorophenyl)(5-phenylselenopheno[3,2-e]pyrimidin-4-yl]amine]
IC50 ([2]; Homo sapiens): 121 µM
IC50 ([1]; Homo sapiens): 105 µM

Cc1c(C(=O)O)[se]c2ncnc(Nc3ccc(F)c(Cl)c3)c12 [Compound 15, 4-[(3-chloro-4-fluorophenyl)amino]-5-methylselenopheno[2,3-d]pyrimidine-6-carboxylic acid]
inhibition at 240.539 µM [2, 7]: 25%
inhibition at 240.539 µM [1, 8]: 41.2%
inhibition at 240.539 µM [3, 9]: 18.9%

Cc1[se]c2ncnc(Nc3ccc(F)c(Cl)c3)c2c1-c1ccccc1 [Compound 16]
IC50 ([2]; Homo sapiens): 44.1 µM
IC50 ([1]; Homo sapiens): 111 µM
inhibition at 66.079 µM [3, 9]: 38.6%

Cc1c(C(N)=O)[se]c2ncnc(Nc3ccc(F)c(Cl)c3)c12 [Compound 17, 4-[(3-chloro-4-fluorophenyl)amino]-5-methylselenopheno[2,3-d]pyrimidine-6-carboxamide]
inhibition at 25 µM [2, 7]: 21.4%
inhibition at 25 µM [1, 8]: 44.4%

Fc1ccc(Nc2ncnc3[se]c4c(c23)CCNC4)cc1Cl [Compound 18, (3-chloro-4-fluorophenyl)-5,6,7,8-tetrahydropyrimidino[5′,6′-5,4]selenopheno[2,3-c]pyridine-4-ylamine]
IC50 ([2]; Homo sapiens): 82.6 µM
IC50 ([1]; Homo sapiens): 42.5 µM
IC50 ([3]; Homo sapiens): 39.1 µM

CS(=O)(=O)N1CCc2c([se]c3ncnc(Nc4ccc(F)c(Cl)c4)c23)C1 [Compound 19, 4[(3-chloro-4-fluorophenyl)amino]-7-(methylsulfonyl)-5,6,7,8-tetrahydro-pyrimidino[5′,4′-5,4]selenopheno[2,3-c]pyridine]
inhibition at 25 µM [2, 7]: 27.4%
inhibition at 25 µM [1, 8]: 29.2%
inhibition at 25 µM [3, 9]: 3.07%

Brc1cccc(Nc2ncnc3[se]c4c(c23)CCNC4)c1 [Compound 20, (3-bromophenyl)-5,6,7,8-tetrahydropyrimidino[5′,6′-5,4]selenopheno[2,3-c]pyridin-4-ylamine]
inhibition at 22.421 µM [2, 7]: 0.45%
inhibition at 22.421 µM [1, 8]: 13.4%
inhibition at 22.421 µM [3, 9]: 8.96%

C#Cc1cccc(Nc2ncnc3[se]c4c(c23)CCNC4)c1 [Compound 21, (3-ethynylphenyl)-5,6,7,8-tetrahydropyrimidino[5′,6′-5,4]selenopheno[2,3-c]pyridine-4-ylamine]
inhibition at 25.575 µM [2, 7]: 11.6%
inhibition at 25.575 µM [1, 8]: 12.9%
inhibition at 25.575 µM [3, 9]: 4.66%

Clc1ccc(Nc2ncnc3[se]c4c(c23)CCNC4)cc1Cl [Compound 22, (3,4-dichlorophenyl)-5,6,7,8-tetrahydropyrimidino[5′,6′-5,4]selenopheno[2,3-c]pyridin-4-ylamine]
inhibition at 22.935 µM [2, 7]: 16.7%
inhibition at 22.935 µM [1, 8]: 36.6%
inhibition at 22.935 µM [3, 9]: 28.4%

COC(=O)c1cc(Nc2ncnc3[se]c4c(c23)CCNC4)c(C)s1 [Compound 23, methyl 5-methyl-4-(5,6,7,8-tetrahydropyrimidino[5′,6′-5,4]selenopheno[2,3-c]pyridin-4-ylamino)thiophene-2-carboxylate]
inhibition at 22.472 µM [2, 7]: 8.64%
inhibition at 22.472 µM [1, 8]: 5.08%
inhibition at 22.472 µM [3, 9]: 15.4%

Cc1c(C(=O)NCCCl)[se]c2ncnc(Nc3ccc(F)c(Cl)c3)c12 [Compound 25]
inhibition at 19.92 µM [2, 7]: 0.19%
IC50 ([1]; Homo sapiens): 8.51 µM
IC50 ([3]; Homo sapiens): 9.24 µM

O=C1CCc2c([se]c3ncnc(Nc4ccc(F)c(Cl)c4)c23)C1 [Compound 26, 4-[(3-chloro-4-fluorophenyl)amino]-5,6,8-trihydrobenzo[2,1-b]pyrimidino[5,4-d]selenophen-7-one]
inhibition at 23.148 µM [2, 7]: 17.5%
inhibition at 23.148 µM [1, 8]: 65.1%
inhibition at 23.148 µM [3, 9]: 30.9%

Fc1ccc(Nc2ncnc3c4c([se]c23)CCCC4)cc1Cl [Compound 27, (3-chloro-4-fluorophenyl)-6,7,8,9-tetrahydrobenzo[1,2-d]pyrimidino[5,6-b]selenophen-4-ylamine]
IC50 ([2]; Homo sapiens): 33.5 µM
IC50 ([1]; Homo sapiens): 11.4 µM
IC50 ([3]; Homo sapiens): 117 µM

CC(C)(C)c1cc2ncnc(Nc3ccc(F)c(Cl)c3)c2[se]1 [Compound 28, [6-(tert-butyl)selenopheno[2,3-e]pyrimidin-4-yl](3-chloro-4-fluorophenyl)amine]
IC50 ([2]; Homo sapiens): 109 µM
IC50 ([1]; Homo sapiens): 82.7 µM
IC50 ([3]; Homo sapiens): 71 µM

Fc1ccc(Nc2ncnc3cc(-c4ccccc4)[se]c23)cc1Cl [Compound 29, (3-chloro-4-fluorophenyl)(6-phenylselenopheno[2,3-e]pyrimidin-4-yl)amine]
inhibition at 30 µM [2, 7]: 45.5%
inhibition at 25 µM [1, 8]: 30.8%
inhibition at 25 µM [3, 9]: 43.1%

Fc1ccc(Nc2ncnc3c2[se]c2ccccc23)cc1Cl [Compound 30, benzo[d]pyrimidino[5,6-b]selenophen-4-yl(3-chloro-4-fluorophenyl)amine]
IC50 ([2]; Homo sapiens): 21.8 µM
IC50 ([1]; Homo sapiens): 26.8 µM
inhibition at 25 µM [3, 9]: 38.1%

Fc1ccc(Nc2ncnc3c2[se]c2ncccc23)cc1Cl [Compound 31, (3-chloro-4-fluorophenyl)pyrimidino[4′,5′-5,4]selenopheno[2,3-b]pyridin-4-ylamine]
inhibition at 25 µM [2, 7]: 30.2%
inhibition at 25 µM [1, 8]: 22%
inhibition at 25 µM [3, 9]: 5.21%

CN(c1ccc(Cl)cc1)c1ncnc2[se]c3c(c12)CCNC3 [Compound 33]
more potent than Gefitinib (Iressa) in inhibiting tumor cells proliferation ([2]; A549, from IC50 values): 101%
IC50 ([2]; Homo sapiens): 28.4 µM
more potent than Gefitinib (Iressa) in inhibiting tumor cells proliferation ([1]; DU145, from IC50 values): 6.8%
IC50 ([1]; Homo sapiens): 29.5 µM
more potent than Gefitinib (Iressa) in inhibiting tumor cells proliferation ([3]; HT29, from IC50 values): 257.8%
IC50 ([3]; Homo sapiens): 13.1 µM
IC50 ([4]; Homo sapiens, MDA-MB-231, 72 h, read-out: Cell proliferation inhibition (IC50) in MDA-MB-231 (Breast Carcinoma)): 20.4 µM
more potent than Gefitinib (Iressa) in inhibiting tumor cells proliferation ([4]; MDA-MB-231, from IC50 values): 122%
more potent than Gefitinib (Iressa) in inhibiting tumor cells proliferation ([5]; HepG2, from IC50 values): 241%
IC50 ([5]; Homo sapiens, HepG2, 72 h, read-out: Cell proliferation inhibition (IC50) in HepG2 (Hepatocellular Carcinoma)): 10.4 µM
IC50 ([6]; Homo sapiens, 72 h, read-out: Cell proliferation inhibition (IC50) in HeLa (Cervical Carcinoma)): 23.1 µM
more potent than Gefitinib (Iressa) in inhibiting tumor cells proliferation ([6]; from IC50 values): 117%

ethyl 4-[(3-chloro-4-fluorophenyl)amino]-5-methylthioselenopheno[3,4-d]pyrimidine-7-carboxylate [Compound 32]
Cell proliferation inhibition in A549 (Lung carcinoma) ([2]; at 25 μM): 26.1% at 25 μM
Cell proliferation inhibition in DU145 (Prostate carcinoma) ([1]; at 25 μM): 9.75% at 25 μM
Cell proliferation inhibition in HT29 (Colon carcinoma) ([3]; at 25 μM): 12.97% at 25 μM
